Measurements taken from patent US20160227776A1, “COMPOSITION CONTAINING ATTRACTANT OF NOXIOUS ARTHROPOD COMPRISING PLANT-DERIVED COMPONENT AND ANALOGUE OF SAME” (KYOYU AGRI CO., LTD., priority 2013, published 2016).

How the values were obtained:
Format in all cases: in vivo
[1] = test system: Frankliniella occidentalis; test: Test Example 1: water trap attraction test, single compounds; design: key: (captured treated − captured untreated)×100/total released per cage; conditions: single compound, 30 adult females per cage, 24 hours
Experimental: (§1) Hexane solutions were prepared respectively containing single compounds selected from among p-anisaldehyde, benzaldehyde, ethyl nicotinate, geraniol, linalool, nerol, citronellol, methyl anthranilate, methyl benzoate, o-aminoacetophenone, o-anisidine, methyl m-aminobenzoate, methyl o-toluate and α-hexylcinnamaldehyde. Each single compound was prepared at five concentration levels consisting of 0.01 μg, 0.1 μg, 1 μg, 10 μg and 100 μg. After impregnating pieces of filter paper with these solutions, the filter paper was affixed on a plastic vial cap using adhesive tape and set up in a water trap containing a surfactant. After releasing 30 adult female Frankliniella occidentalis into an acrylic cage, the water trap containing the above-mentioned attractants was set up in the cage. 24 hours later, the number of Frankliniella occidentalis captured in the water trap was counted and the attraction rate was calculated using Equation 1.
(§2) Attraction rate=(No. of captured individuals in treatment−no. of captured individuals in untreatment)*100/(total no. released per cage) (1)

[2] = test system: Frankliniella occidentalis; test: Test Example 2: water trap attraction test, mixtures of two compounds; design: key: % of released insects: (treated catch − untreated catch)×100/total released; conditions: single compound for comparison, 24 hours
Experimental: as §1, with “Mixed hexane” for “Hexane”, “two types of” for “single”, “Each single compound was prepared at five concentration levels consisting of 0.01 μg, 0.1 μg, 1 μg, 10 μg and 100 μg.” left out, “the mixed solution of the two types of compounds,” for “these solutions,”, “above-mentioned mixed” for “above-mentioned”, “1. In addition, hexane solutions were also prepared containing each of the single compounds at their respective prescribed concentrations for the sake of comparison, and those solutions were tested in the same manner.” for “1.”
as §2
(§3) In general, a synergistic attracting effect expected when mixing two given types of attractive compounds and using for treatment is determined from Colby's equation indicated with the following Equation 2: […]
(§4) X: attraction rate when treated with attractive compound A;
(§5) Y: attraction rate when treated with attractive compound B; and
(§6) E: attraction rate expected when treating by mixing attractive compound A and attractive compound B (expected attraction rate value).

[3] = test system: Frankliniella occidentalis; test: Test Example 3: water trap attraction test, mixtures of three compounds; design: scale not given here; conditions: single compound for comparison, 24 hours
Experimental: Mixed hexane solutions were prepared containing three types of compounds selected from among p-anisaldehyde, benzaldehyde, ethyl nicotinate, geraniol, linalool, nerol, citronellol, methyl anthranilate, methyl benzoate, o-aminoacetophenone, o-anisidine, methyl m-aminobenzoate, methyl o-toluate and α-hexylcinnamaldehyde. […] After impregnating pieces of filter paper with the mixed solution of the three types of compounds, the filter paper was affixed on a plastic vial cap using adhesive tape and set up in a pan trap containing a surfactant. After releasing 30 adult female Frankliniella occidentalis into an acrylic cage, the water trap containing the above-mentioned mixed attractants was set up in the cage. 24 hours later, the number of Frankliniella occidentalis captured in the water trap was counted and the attraction rate was calculated using Equation 1. In addition, hexane solutions were also prepared containing each of the single agents at their respective prescribed concentrations for the sake of comparison, and those solutions were tested in the same manner.
In general, a synergistic attracting effect expected when mixing three given types of attractive compounds and using for treatment is determined from Colby's equation indicated with the following Equation 3: […]
as §4
(§7) Y: attraction rate when treated with attractive compound B;
Z: attraction rate when treated with attractive compound C; and
E: attraction rate expected when treating by mixing attractive compound A, attractive compound B and attractive compound C (expected attraction rate value).

Tetranychus urticae = test: Test Example 4: plastic tube filter paper contact test, mixtures of two compounds; design: key: (treated − untreated contacts) ×100 / repetitions, %; conditions: weight of each compound 1 μg; contact with filter paper within 10 minutes
Experimental: Mixed hexane solutions were prepared respectively containing two types of compounds selected from among p-anisaldehyde, benzaldehyde, ethyl nicotinate, geraniol, linalool, nerol, citronellol, methyl anthranilate, methyl benzoate, o-aminoacetophenone, o-anisidine, methyl m-aminobenzoate, methyl o-toluate and α-hexylcinnamaldehyde. The weight of each compound was adjusted to 1 μg. After impregnating pieces of filter paper (3 mm^2) with the mixed solution of the two types of compounds, the filter paper was set up at the head of a plastic tube (length of 9 cm, 5 mm^2 in diameters). An adult Tetranychus urticae was released into the end of plastic tube. Among 10 minutes, the number of T. urticae contacted the filter paper was counted and the attraction rate was calculated using Equation 1. In addition, hexane solutions were also prepared containing each of the single compounds at their respective prescribed concentrations for the sake of comparison, and those solutions were tested in the same manner.
Attraction rate=(No. of contacted individuals in treatment−no. of contacted individuals in untreatment)*100/(repetition) (1)
as §3, §4, §7, §6

Drosophila melanogaster = test: Test Example 5: water trap attraction test, mixtures of two compounds; design: key: % = (captured treated − captured untreated)×100/total released; conditions: weight of each compound 100 μg; 20 adults per cage; 24 hours
Experimental: Mixed hexane solutions were prepared respectively containing two types of compounds selected from among p-anisaldehyde, benzaldehyde, ethyl nicotinate, geraniol, linalool, nerol, citronellol, methyl anthranilate, methyl benzoate, o-aminoacetophenone, o-anisidine, methyl m-aminobenzoate, methyl o-toluate and α-hexylcinnamaldehyde. The weight of each compound was adjusted to 100 μg. After impregnating pieces of filter paper with the mixed solution of the two types of compounds, the filter paper was affixed on a plastic vial cap using adhesive tape and set up in a water trap containing a surfactant. After releasing 20 adult Drosophila melanogaster into an acrylic cage, the water trap containing the above-mentioned mixed attractants was set up in the cage. 24 hours later, the number of D. melanogaster captured in the water trap was counted and the attraction rate was calculated using Equation 1. In addition, hexane solutions were also prepared containing each of the single compounds at their respective prescribed concentrations for the sake of comparison, and those solutions were tested in the same manner.
as §2, §3, §4, §5, §6

Thrips tabaci = test: Test Example 6: yellow sticky trap attraction test, mixtures of two compounds; design: key: % = (captured treated − captured untreated)×100/total released per cup; conditions: weight of each compound 1 μg; 10 adults per cup; 24 hours
Experimental: Mixed hexane solutions were prepared respectively containing two types of compounds selected from among p-anisaldehyde, benzaldehyde, ethyl nicotinate, geraniol, linalool, nerol, citronellol, methyl anthranilate, methyl benzoate, o-aminoacetophenone, o-anisidine, methyl m-aminobenzoate, methyl o-toluate and α-hexylcinnamaldehyde. The weight of each compound was adjusted to 1 μg. After impregnating pieces of filter paper (3 mm^2) with the mixed solution of the two types of compounds, the filter paper was affixed on a yellow sticky trap (1 cm^2). After releasing 10 adult Thrips tabaci into a plastic cup (150 ml), the yellow sticky trap containing the above-mentioned mixed attractants was set up at the side of the plastic cup. 24 hours later, the number of T. tabaci captured in the yellow sticky trap was counted and the attraction rate was calculated using Equation 1. In addition, hexane solutions were also prepared containing each of the single compounds at their respective prescribed concentrations for the sake of comparison, and those solutions were tested in the same manner.
Attraction rate=(No. of captured individuals in treatment−no. of captured individuals in untreatment)*100/(total no. released per cup) (1)
as §3, §4, §7, §6

Structure (SMILES) | Attraction Rate ([1]; Amount 0.01 μg) | Attraction Rate ([1]; Amount 0.1 μg) | Attraction Rate ([1]; Amount 1 μg) | Attraction Rate ([1]; Amount 10 μg) | Attraction Rate ([1]; Amount 100 μg) | Attraction Rate ([2]; 100 μg) | Attraction Rate ([3]; 100 μg) | Attraction Rate (Tetranychus urticae) | Attraction Rate (Drosophila melanogaster) | Attraction Rate (Thrips tabaci) | Attraction Rate ([2]; 1 μg) | Attraction Rate ([3]; 1 μg)
COc1ccccc1N [o-anisidine] | 6 | 10 | 20 | 30 | 40 | 40 | 40 | 15 | 8 | 0 | – | –
C=CC(C)(O)CCC=C(C)C (stereo not drawn) [Linalool, linalool] | 13 | 13 | 20 | 13 | 7 | – | – | 5 | 3 | 0 | 20 | 20
CCOC(=O)c1cccnc1 [Ethyl nicotinate, ethyl nicotinate] | 13 | 27 | 30 | 36 | 43 | 43 | 43 | 15 | 3 | 10 | – | –
